Data: ChEMBL document CHEMBL3813657, “Bacterial Peptide deformylase inhibition of cyano substituted biaryl analogs: Synthesis, in vitro biological evaluation, molecular docking study and in silico ADME prediction” (Bioorg Med Chem, 2016)
In brackets after ≈: the same amount, converted by molar mass.

Key:
Escherichia coli = assay: Antibacterial activity against Escherichia coli NCIM-2256 after 24 hrs by two fold serial dilution method; format: functional; conditions: NCIM-2256, 24 h
Peptide deformylase [1] = target: T1, Peptide deformylase (Escherichia coli, UniProt Q9JN24); assay: Inhibition of NiCl2 stabilized Escherichia coli NCIM-2931 peptide deformylase using N-formyl-Met-Ala as substrate incubated for 30 mins by spectrophotometric method
T1 sequence (Q9JN24 whole entry): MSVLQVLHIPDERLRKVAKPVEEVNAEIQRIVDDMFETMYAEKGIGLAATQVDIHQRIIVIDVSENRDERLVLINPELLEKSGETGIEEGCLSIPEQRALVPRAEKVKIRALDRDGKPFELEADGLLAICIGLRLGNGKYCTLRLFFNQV

Bacillus subtilis = assay: Antibacterial activity against Bacillus subtilis NCIM-2063 after 24 hrs by two fold serial dilution method; format: functional; conditions: NCIM-2063, 24 h
Peptide deformylase [2] = target: T1, Peptide deformylase; assay: Inhibition of Escherichia coli peptide deformylase

Row | Structure (SMILES) | MIC (Escherichia coli) [µg/mL] | IC50 (Peptide deformylase [1]) [µM] | MIC (Bacillus subtilis) [µg/mL] | IC50 (Peptide deformylase [2]) [µM]
1 | O=C(O)c1cn(C2CC2)c2cc(N3CCNCC3)c(F)cc2c1=O [CIPROFLOXACIN] | 25 (≈ 75.4 µM) |  |  | 
2 | COc1ccc2nc(NCc3ccc(-c4ccccc4C#N)cc3)sc2c1 | 35.2 (≈ 94.9 µM) | 27.8 | 36.2 (≈ 97.6 µM) | 
3 | N#Cc1ccccc1-c1ccc(CNc2ccc(O)cc2)cc1 | 33.6 (≈ 112 µM) | 34.6 | 28.3 (≈ 94.3 µM) | 
4 | N#Cc1ccccc1-c1ccc(CNc2cnccn2)cc1 | 16.9 (≈ 59.1 µM) | 19.2 | 7.66 (≈ 26.8 µM) | 
5 | CCCC1=NC2C(C)=CC(C)=NN2C1Cc1ccc(-c2ccccc2C(=O)O)cc1 (configuration not stated) |  |  |  | 22.8
6 | N#Cc1ccccc1-c1ccc(CNc2ccc(Cl)cc2[N+](=O)[O-])cc1 | 45.6 (≈ 125 µM) | 28.3 | 27.2 (≈ 74.7 µM) | 
7 | N#Cc1ccccc1-c1ccc(CNc2ccc(C(F)(F)F)cc2)cc1 | 35.5 (≈ 101 µM) | 33.5 | 34.4 (≈ 97.7 µM) | 
8 | CCCc1nc2ccc(Cl)cc2n1Cc1ccc(-c2ccccc2-c2nnn[nH]2)cc1 |  |  |  | 3.9
9 | N#Cc1ccccc1-c1ccc(CNc2ccc(N3CCOCC3)c(F)c2)cc1 | 37.3 (≈ 96.3 µM) | 42.5 | 21.6 (≈ 55.7 µM) | 
10 | N#Cc1ccccc1-c1ccc(CNc2ccc(C(=O)O)cc2)cc1 | 32.6 (≈ 99.2 µM) | 51.2 | 26.8 (≈ 81.5 µM) | 
11 | N#Cc1ccccc1-c1ccc(CNn2cnnc2)cc1 | 36.5 (≈ 133 µM) | 50.7 | 23.8 (≈ 86.3 µM) | 
12 | N#Cc1ccccc1-c1ccc(CNc2cccc([N+](=O)[O-])c2)cc1 | 40.9 (≈ 124 µM) | 25 | 29.3 (≈ 89.1 µM) | 
13 | N#Cc1ccccc1-c1ccc(CNc2ccccc2[N+](=O)[O-])cc1 | 28.5 (≈ 86.5 µM) | 15.7 | 23.8 (≈ 72.1 µM) | 
14 | N#Cc1ccccc1-c1ccc(CNc2ccccc2O)cc1 | 39.6 (≈ 132 µM) | 33 | 29.3 (≈ 97.6 µM) | 
15 | N#Cc1ccccc1-c1ccc(CNc2cccc(C(F)(F)F)c2)cc1 | 42.5 (≈ 121 µM) | 20.9 | 25.8 (≈ 73.3 µM) | 
16 | N#Cc1ccccc1-c1ccc(CNc2ccccc2)cc1 | 15.8 (≈ 55.7 µM) | 13.2 | 11 (≈ 38.7 µM) | 
